Patent publication EP4549424A1, “NEW LITHIUM EXTRACTING AGENT AND LIQUID ORGANIC MIXTURE THEREOF, AND METHOD FOR EXTRACTING LITHIUM BY MEANS OF EXTRACTION” (Beijing Salt Lake Technology Development Company Limited, priority 2022, dated 2024)

What was measured:
Conditions in all cases: organic phase and phase ratio per example
[1] = Liquid-liquid extraction from aqueous lithium-containing solution, ICP detection: sodium;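 note: sodium measured by inductively coupled plasma optical emission spectrometry in the diluted aqueous phase left after shaking with the organic phase and phase separation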
[2] = Liquid-liquid extraction from aqueous lithium-containing solution, ICP detection: potassium;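 note: analysis by ICP optical emission spectrometry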
[3] = Liquid-liquid extraction from aqueous lithium-containing solution, ICP detection: lithium;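 note: component concentrations in the aqueous phase were measured by inductively coupled plasma optical emission spectrometry after shaking and phase separation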
[4] = feed B3 (cLi 0.937, cNa 119.10, cK 43.03 g/L, pH 9.60)
[5] = feed B5 (cLi 0.261, cNa 39.98, cK 7.61 g/L, pH 9.49)
[6] = feed B1 (cLi 0.807, cNa 56.12 g/L, pH 11.48)
[7] = feed B2 (cLi 0.947, cNa 51.63 g/L, pH 10.77)
[8] = feed B7 (cLi 0.833, cNa 55.60, cK 5.37 g/L, pH 12.05), 26°C
[9] = feed B4 (cLi 0.152, cNa 34.20, cK 2.36 g/L, pH 9.14)

O=C(CC(=O)c1ccccc1)c1ccccc1 [Comparative Example 3, 1,3-diphenyl-1,3-propanedione, reference compound]
cNa, remaining aqueous phase R1 [1, 4]: 115.32 g/L
extraction rate for sodium ions [1, 4]: 3.17%
cK, remaining aqueous phase R1 [2, 4]: 43.21 g/L
cLi, remaining aqueous phase R1 [3, 4]: 0.377 g/L
extraction rate for lithium ions [3, 4]: 59.76%
separation factor of Li/Na [3, 4]: 45.3

Cc1ccc(C(=O)CC(=O)C(F)(F)F)cc1 [Comparative Example 6, 4,4,4-trifluoro-1-(4-tolyl)-1,3-butanedione, reference compound]
extraction rate for sodium ions [1, 4]: 3.30%
cK, remaining aqueous phase R1 [2, 4]: 42.11 g/L
extraction rate for lithium ions [3, 4]: 81.11%
separation factor of Li/Na [3, 4]: 125.8

CCCCCCCCOc1c([N+](=O)[O-])cc(C(=O)c2ccccc2)c(O)c1[N+](=O)[O-] [Example 16, 4-octyloxy-2,5-dinitro-2-hydroxydibenzophenone]
extraction rate for sodium ions [1, 5]: 12.7%
cK, remaining aqueous phase R1 [2, 5]: 6.89 g/L
extraction rate for potassium ions [2, 5]: 9.5%
extraction rate for lithium ions [3, 5]: 88.5%
separation factor of Li/K [3, 5]: 73.7
separation factor of Li/Na [3, 5]: 52.9

CCCCCCOc1ccc(C(=O)c2ccccc2)c(O)c1 [Example 8, 4-hyxyloxy-2-hydroxydibenzophenone]
extraction rate for sodium ions [1, 6]: 6.5%
extraction rate for lithium ions [3, 6]: 67.0%
separation factor of Li/Na [3, 6]: 29.5

CCCCCCCCOc1ccc(C(=O)c2ccccc2)c(O)c1 [Example 10, 4-octyloxy-2-hydroxydibenzophenone]
extraction rate for sodium ions [1, 7]: 4.5%
extraction rate for lithium ions [3, 7]: 9.8%
separation factor of Li/Na [3, 7]: 2.3

O=C(CC(=O)c1ccccc1)c1ccccc1 [Comparative Example 4, 1,3-diphenyl-1,3-propanedione, reference compound]
cNa, remaining aqueous phase R1 [1, 5]: 38.12 g/L
extraction rate for sodium ions [1, 5]: 4.65%
cK, remaining aqueous phase R1 [2, 5]: 7.60 g/L
cLi, remaining aqueous phase R1 [3, 5]: 0.186 g/L
extraction rate for lithium ions [3, 5]: 28.73%
separation factor of Li/Na [3, 5]: 8.3

CCCCCCCCCCCCCCCCCC(=O)CC(=O)c1ccccc1 [Comparative Example 5, stearoylbenzoylmethane, reference compound]
cNa, remaining aqueous phase R1 [1, 4]: 113.57 g/L
extraction rate for sodium ions [1, 4]: 4.64%
cK, remaining aqueous phase R1 [2, 4]: 41.03 g/L
cLi, remaining aqueous phase R1 [3, 4]: 0.577 g/L
extraction rate for lithium ions [3, 4]: 38.42%
separation factor of Li/Na [3, 4]: 12.8

CC(=O)c1cc(I)ccc1O [Example 39, 2-hydroxy-5-iodoacetophenone]
extraction rate for sodium ions [1, 8]: 10.3%
extraction rate for potassium ions [2, 8]: 8.5%
extraction rate for lithium ions [3, 8]: 48%
separation factor of Li/Na [3, 8]: 8

2-hydroxydibenzophenone [Example 29]
extraction rate for sodium ions [1, 7]: 2.32%
extraction rate for lithium ions [3, 7]: 73.3%
separation factor of Li/Na [3, 7]: 72.8

CCCCCCCCCCOc1ccc(C(=O)c2ccccc2)c(O)c1 [Example 11, 4-decyloxy-2-hydroxydibenzophenone]
extraction rate for sodium ions [1, 4]: 0.9%
cK, remaining aqueous phase R1 [2, 4]: 42.65 g/L
extraction rate for lithium ions [3, 4]: 3.1%
separation factor of Li/Na [3, 4]: 3.5

CC(=O)c1cc(OCc2ccccc2)ccc1O [Example 32, 2-hydroxy-5-benzyloxyacetophenone]
extraction rate for sodium ions [1, 8]: 7.8%
cK, remaining aqueous phase R1 [2, 8]: 5.01 g/L
extraction rate for potassium ions [2, 8]: 6.7%
extraction rate for lithium ions [3, 8]: 46.6%
separation factor of Li/Na [3, 8]: 10.3

CC(=O)CC(=O)c1ccccc1 [Comparative Example 2, benzoyl acetone, reference compound]
extraction rate for sodium ions [1, 5]: 4.45%
cK, remaining aqueous phase R1 [2, 5]: 7.52 g/L
extraction rate for lithium ions [3, 5]: 23.4%
separation factor of Li/Na [3, 5]: 6.54

O=C(c1ccccc1)c1cc(Cl)ccc1O [Example 38, 2-hydroxy-5-chlorodibenzophenone]
extraction rate for sodium ions [1, 8]: 8.7%
cK, remaining aqueous phase R1 [2, 8]: 4.99 g/L
extraction rate for potassium ions [2, 8]: 7.1%
extraction rate for lithium ions [3, 8]: 56.06%
separation factor of Li/Na [3, 8]: 13.5

COc1cccc(O)c1C(C)=O [Example 31, 2-hydroxy-6-methoxyacetophenone]
extraction rate for sodium ions [1, 8]: 9.86%
extraction rate for potassium ions [2, 8]: 3.2%
extraction rate for lithium ions [3, 8]: 53.42%
separation factor of Li/Na [3, 8]: 10.5

4-dodecyloxy-5-bromo-2-hydroxydibenzophenone [Example 14]
extraction rate for sodium ions [1, 9]: 5.8%
extraction rate for potassium ions [2, 9]: 25.0%
extraction rate for lithium ions [3, 9]: 48.7%
separation factor of Li/K [3, 9]: 2.8
separation factor of Li/Na [3, 9]: 15.3

CCC(O)C(=O)c1ccccc1 (single isomer, unassigned) [Example 4, 2-hydroxybutyrophenone]
extraction rate for sodium ions [1, 6]: 4.8%
extraction rate for lithium ions [3, 6]: 60.1%
separation factor of Li/Na [3, 6]: 29.8

2-hydroxydibenzophenone [Example 2]
cNa, remaining aqueous phase R1 [1, 6]: 50.23 g/L
extraction rate for sodium ions [1, 6]: 10.5%
cLi, remaining aqueous phase R1 [3, 6]: 0.362 g/L
extraction rate for lithium ions [3, 6]: 55.1%
separation factor of Li/Na [3, 6]: 10.5

CC(=O)c1ccc(OCc2ccccc2)cc1O [Example 6, 4-benzyloxy-2-hydroxyacetophenone]
extraction rate for sodium ions [1, 6]: 1.4%
extraction rate for lithium ions [3, 6]: 34.7%
separation factor of Li/Na [3, 6]: 37.7

CC(=O)c1c(O)cccc1[N+](=O)[O-] [Example 36, 2-hydroxy-6-nitrocetophenone]
extraction rate for sodium ions [1, 8]: 8.2%
extraction rate for potassium ions [2, 8]: 9.3%
extraction rate for lithium ions [3, 8]: 81.1%
separation factor of Li/Na [3, 8]: 48

CC1=NN(c2ccccc2)C(=O)C1C(=O)c1ccccc1 (centres unmarked) [Comparative Example 7, 1-phenyl-3-methyl-4-benzoyl-5-pyrazolone, reference compound]
extraction rate for sodium ions [1, 4]: 1.09%
cK, remaining aqueous phase R1 [2, 4]: 42.96 g/L
extraction rate for lithium ions [3, 4]: 1.28%
separation factor of Li/Na [3, 4]: 1.17

COc1ccc(C(C)=O)c(O)c1OC [Example 33, 2-hydroxy-3,4-dimethoxyacetophenone]
extraction rate for sodium ions [1, 8]: 11.94%
cK, remaining aqueous phase R1 [2, 8]: 4.95 g/L
extraction rate for potassium ions [2, 8]: 7.8%
extraction rate for lithium ions [3, 8]: 50.06%
separation factor of Li/Na [3, 8]: 7.4

CCCCCCCCCCCCOc1cc(O)c(C(=O)c2ccccc2)cc1Br [Example 15, 4-dodecyloxy-5-bromo-2-hydroxydibenzophenone]
extraction rate for sodium ions [1, 9]: 6.9%
cK, remaining aqueous phase R1 [2, 9]: 1.80 g/L
extraction rate for potassium ions [2, 9]: 23.7%
extraction rate for lithium ions [3, 9]: 64.5%
separation factor of Li/K [3, 9]: 5.8
separation factor of Li/Na [3, 9]: 24.4

COc1ccc(C(=O)c2ccc(OC)cc2O)c(O)c1 [Example 28, 2,2'-dihydroxy-4,4'-dimethoxydibenzophenone]
extraction rate for sodium ions [1, 6]: 3.4%
extraction rate for lithium ions [3, 6]: 83.6%
separation factor of Li/Na [3, 6]: 146.7

CC(=O)CC(=O)c1ccccc1 [Comparative Example 1, benzoyl acetone, reference compound]
extraction rate for sodium ions [1, 4]: 5.43%
cK, remaining aqueous phase R1 [2, 4]: 41.79 g/L
extraction rate for lithium ions [3, 4]: 53.0%
separation factor of Li/Na [3, 4]: 19.6

CC(O)C(=O)c1ccccc1 (centres unmarked) [Example 3, 2-hydroxypropiophenone]
cNa, remaining aqueous phase R1 [1, 6]: 52.10 g/L
extraction rate for sodium ions [1, 6]: 7.2%
cLi, remaining aqueous phase R1 [3, 6]: 0.383 g/L
extraction rate for lithium ions [3, 6]: 52.5%
separation factor of Li/Na [3, 6]: 14.3

CC1=NN(c2ccccc2)C(=O)C1C(=O)c1ccccc1 (centres unmarked) [Comparative Example 8, 1-phenyl-3-methyl-4-benzoyl-5-pyrazolone, reference compound]
extraction rate for sodium ions [1, 6]: 4.40%
extraction rate for lithium ions [3, 6]: 7.43%
separation factor of Li/Na [3, 6]: 1.74

CCCCCCCOc1ccc(C(=O)c2ccccc2)c(O)c1 [Example 9, 4-heptoxy-2-hydroxydibenzophenone]
extraction rate for sodium ions [1, 6]: 6.2%
extraction rate for lithium ions [3, 6]: 60.8%
separation factor of Li/Na [3, 6]: 23.6

CC(=O)c1cccc([N+](=O)[O-])c1O [Example 34, 2-hydroxy-3-nitrocetophenone]
extraction rate for sodium ions [1, 8]: 8.17%
extraction rate for potassium ions [2, 8]: 4.5%
extraction rate for lithium ions [3, 8]: 93.28%
separation factor of Li/Na [3, 8]: 156

CCCCCCCCOc1cc(O)c(C(=O)c2ccccc2)cc1[N+](=O)[O-] [Example 13, 4-octyloxy-5-nitro-2-hydroxydibenzophenone]
extraction rate for sodium ions [1, 4]: 5.2%
extraction rate for potassium ions [2, 4]: 4.4%
extraction rate for lithium ions [3, 4]: 64.7%
separation factor of Li/K [3, 4]: 39.9
separation factor of Li/Na [3, 4]: 33.2

CC(=O)c1ccc([N+](=O)[O-])cc1O [Example 35, 2-hydroxy-4-nitrocetophenone]
extraction rate for sodium ions [1, 8]: 7.09%
extraction rate for potassium ions [2, 8]: 3.0%
extraction rate for lithium ions [3, 8]: 91.72%
separation factor of Li/Na [3, 8]: 145

CC(=O)c1cc(Cl)cc([N+](=O)[O-])c1O [Example 37, 5-chloro-2-hydroxy-3-nitrocetophenone]
extraction rate for sodium ions [1, 8]: 8.7%
cK, remaining aqueous phase R1 [2, 8]: 4.93 g/L
extraction rate for potassium ions [2, 8]: 9.2%
extraction rate for lithium ions [3, 8]: 92.1%
separation factor of Li/Na [3, 8]: 120

CCC(O)C(=O)c1ccccc1 (single isomer, unassigned) [Example 5, 2-hydroxybutyrophenone]
extraction rate for sodium ions [1, 6]: 6.8%
extraction rate for lithium ions [3, 6]: 80.5%
separation factor of Li/Na [3, 6]: 57.0
